In BigSolDB 2.1:

CC1=C(/C=C/C(C)=C/C=C/C(C)=C/C=C/C=C(C)/C=C/C=C(C)/C=C/C2=C(C)C(=O)CCC2(C)C)C(C)(C)CCC1=O
solubility (mole fraction)
Conditions | 293.15 K | 298.15 K | 303.15 K | 308.15 K | 313.15 K | 318.15 K | 323.15 K | 333.15 K | 343.15 K
in acetone | 1.95e-05 | 2.45e-05 | 3.1e-05 | 3.72e-05 | 4.22e-05 | 4.94e-05 | – | – | –
in cyclohexane | 1.27e-05 | – | 1.33e-05 | – | 1.38e-05 | – | 1.48e-05 | 1.71e-05 | 2.06e-05
in ethanol | 4.5e-06 | – | 5.6e-06 | – | 6.35e-06 | – | 7.48e-06 | 8.72e-06 | 9.9e-06
in ethyl acetate | 2.71e-05 | – | 3.67e-05 | – | 5.43e-05 | – | 8.58e-05 | 0.000144 | 0.000256
in methanol | 2.61e-06 | – | 2.93e-06 | – | 3.27e-06 | – | 3.77e-06 | 4.53e-06 | –
in toluene | 0.000118 | – | 0.000146 | – | 0.000171 | – | 0.00019 | 0.000202 | 0.000208
